Data on 42 compounds can be found in patent US20210038559A1, “CANNABINOIDS AND DERIVATIVES FOR PROMOTING IMMUNOGENICITY OF TUMOR AND INFECTED CELLS” (priority 2018, published 2021).

The test system of the first experiment is MHC-I expression by COLO 205 cells. Kind of experiment: cells. The format is cell-based, human.
Conditions: not given
The protocol: A panel of synthetic cannabinoids (Cayman Chemical, #9002891) was tested for MHC class I-inducing capability in COLO 205 cells as described above. COLO 205 cells were treated with the compounds at a concentration of 35 μM and evaluated for cell surface MHC class I expression after 48 hours. Cells were harvested, stained with MHC-I mAb W6/32 (Thermo Fisher). MHC-I expression was determined by flow cytometry.
For `CCC(F)CCn1nc(C(=O)N[C@H](C(=O)OC)C(C)C)c2ccccc21` (stereo partly drawn) [Example 210, methyl (1-(3-fluoropentyl)-1H-indazole-3-carbonyl)-1-valinate], the “Induction Fold” value was determined as 1.84 Fold.

Take `CCCCCn1cc(C(=O)c2cccc3ccccc23)cc1-c1ccccc1C` [Example 60, [5-(2-methylphenyl)-1-pentyl-1H-pyrrol-3-yl]-1-naphthalenyl-methanone]: the “Induction Fold” value is 2.85 Fold.

Staying with this experiment, now noted: Homo sapiens, COLO 205, 48 h, MHC-I expression, COLO 205 cells, compounds at 35 μM, 48 hours, flow cytometry (W6/32); read-out: Induction Fold.
With `CN1CCCCC(n2cc(C(=O)c3ccccc3I)c3ccccc32)C1` (stereo not drawn) [Example 24, (2-iodophenyl)(1-(1-methylazepan-3-yl)-1H-indol-3-yl)methanone], the fold induction at 35 µM was found to be 3.64.

As for `CCCC(F)Cn1cc(C(=O)c2ccc(C)c3ccccc23)c2ccccc21` (stereo not drawn) [Example 359, (1-(2-fluoropentyl)-1H-indol-3-yl)(4-methylnaphthalen-1-yl)methanone], the fold induction at 35 µM was 1.

On to `CCC(Cl)CCn1cc(C(=O)c2cccc3ccccc23)c2ccccc21` (stereo not drawn) [Example 114, (1-(3-chloropentyl)-1H-indol-3-yl)(naphthalen-1-yl)methanone], for which the fold induction at 35 µM amounted to 2.35.

`CCCCCn1cc(C(=O)Cc2ccccc2Cl)c2ccccc21` [Example 190, 2-(2-chlorophenyl)-1-(1-pentyl-1H-indol-3-yl)-ethanone]: the fold induction at 35 µM turned out to be 1.89.

On to `CC(C)Cn1cc(C(=O)c2cccc3ccccc23)c2ccccc21` [Example 41, (1-isobutyl-1H-indol-3-yl)(naphthalen-1-yl)methanone], for which the fold induction at 35 µM came to 3.11.

As to `O=C(Oc1ccc2cccnc2c1)c1cn(CC2CCCCC2)c2ccccc12` [Example 47, quinolin-7-yl 1-(cyclohexylmethyl)-1H-indole-3-carboxylate], the fold induction at 35 µM was determined as 3.01.

With `O=C(c1cccc2ccccc12)c1cn(CCCCCCF)c2ccccc12` [Example 341, (1-(6-fluorohexyl)-1H-indol-3-yl)(naphthalen-1-yl)methanone], the fold induction at 35 µM came out at 1.18.

As to `O=C(c1nn(CCCCCF)c2ccccc12)N1CCCC1` [Example 230, (1-(5-fluoropentyl)-1H-indazol-3-yl)(pyrrolidin-1-yl)methanone], the fold induction at 35 µM stood at 1.72.

As to `CC1(C)C(C(=O)N/N=C2\C(=O)N(CCCCCF)c3ccccc32)C1(C)C` [Example 111, 2,2,3,3-tetramethyl-cyclopropanecarboxylic acid (2Z)-2-[1-(5-fluoropentyl)-1,2-dihydro-2-oxo-3H-indol-3-ylidene]hydrazide], the fold induction at 35 µM was 2.37.

As for `CCC(CC)n1cc(C(=O)c2ccc3ccccc3c2)c2ccccc21` [Example 201, [1-(1-ethylpropyl)-1H-indol-3-yl]-2-naphthalenyl-methanone], the fold induction at 35 µM came out at 1.87.

`CCCCCn1cc(C(=O)c2cccc3c(C)cccc23)c2ccccc21` [Example 191, (5-methylnaphthalen-1-yl)(1-pentyl-1H-indol-3-yl)methanone]: the fold induction at 35 µM was found to be 1.89.

For the compound `C/C(=C\C(=O)c1cn(CCN2CCOCC2)c2ccccc12)C(C)(C)C` [Example 132, (E)-3,4,4-trimethyl-1-(1-(2-morpholinoethyl)-1H-indol-3-yl)pent-2-en-1-one], the fold induction at 35 µM came out at 2.25.

For the compound `CCCCCCCCC(C)(C)c1ccc([C@H]2CCC[C@@H](O)C2)c(O)c1` (relative stereo) [Example 374, cis-5-(1,1-dimethylnonyl)-2-(3-hydroxycyclohexyl)-phenol], the fold induction at 35 µM worked out at 0.49.

With `CN1CCCCC1Cn1cc(C(=O)c2cc([N+](=O)[O-])ccc2I)c2ccccc21` (stereo not drawn) [Example 7, (2-iodo-5-nitrophenyl)-(1-(1-methylpiperidin-2-ylmethyl)-1H-indol-3-yl)methanone], the fold induction at 35 µM was found to be 5.59.

Consider `O=C(c1cccc2ccccc12)c1cn(Cc2ccc(F)cc2)c2ccccc12` [Example 220, (1-(4-fluorobenzyl)-1H-indol-3-yl)(naphthalen-1-yl)methanone], for which the fold induction at 35 µM was determined as 1.77.

Consider `CCCCCn1cc(C(=O)c2cccc3cccc(CC)c23)c2ccccc21` [Example 115, (8-ethylnaphthalen-1-yl)(1-pentyl-1H-indol-3-yl)methanone], for which the fold induction at 35 µM was 2.35.

Take `Cc1ccc(C(=O)c2cn(CCCC(C)F)c3ccccc23)c2ccccc12` (stereo not drawn) [Example 145, (1-(4-fluoropentyl)-1H-indol-3-yl)(4-methylnaphthalen-1-yl)methanone]: the fold induction at 35 µM was found to be 2.16.

With `CC1(C)C(C(=O)c2cn(CCCCCF)c3ccccc23)C1(C)C` [Example 51, (1-(5-fluoropentyl)-1H-indol-3-yl)(2,2,3,3-tetramethylcyclopropyl)methanone], the fold induction at 35 µM was 2.99.

With `CCCCCn1nc(C(=O)Oc2cccc3cccnc23)c2ccccc21` [Example 258, 1-pentyl-1H-indazole-3-carboxylic acid, 8-quinolinyl ester], the fold induction at 35 µM was determined as 1.59.

`CC(C)(NC(=O)c1cn(CCCCCF)c2ncccc12)c1ccccc1` [Example 313, 1-(5-fluoropentyl)-N-(2-phenylpropan-2-yl)-1H-pyrrolo[2,3-b] pyridine-3-carboxamide]: the fold induction at 35 µM is 1.33.

Consider `CCCC(F)Cn1cc(C(=O)c2cccc3ccccc23)c2ccccc21` (stereo not drawn) [Example 104, (1-(2-fluoropentyl)-1H-indol-3-yl)(naphthalen-1-yl)methanone], for which the fold induction at 35 µM was found to be 2.41.

In the case of `O=C(Nc1cccc2cccnc12)c1cn(CCCCCF)c2ccccc12` [Example 208, 1-(5-fluoropentyl)-N-(quinolin-8-yl)-1H-indole-3-carboxamide], the fold induction at 35 µM stood at 1.84.

As for `CCC(C)Cn1cc(C(=O)c2ccc3ccccc3c2)c2ccccc21` (stereo not drawn) [Example 271, (1-(2-methylbutyl)-1H-indol-3-yl)(naphthalen-2-yl)-methanone], the fold induction at 35 µM was 1.54.

Consider `CCCCCn1cc(C(=O)Nc2ccccc2)c2ccccc21` [Example 307, 1-pentyl-N-phenyl-1H-indole-3-carboxamide], for which the fold induction at 35 µM was 1.38.

For `CCCCCn1cc(C(=O)Cc2ccccc2)c2ccccc21` [Example 80, 1-(1-pentyl-1H-indol-3-yl)-2-phenyl-ethanone], the fold induction at 35 µM was found to be 2.57.

Turning to `CC1(C)C(C(=O)c2cn(CCCC(F)(F)F)c3ccccc23)C1(C)C` [Example 110, (2,2,3,3-tetramethylcyclopropyl)[1-(4,4,4-trifluorobutyl)-1H-indol-3-yl]-methanone], the fold induction at 35 µM turned out to be 2.37.

As to `CN1CCCC[C@@H]1Cn1cc(C(=O)c2cc([N+](=O)[O-])ccc2I)c2ccccc21` [Example 23, (2-iodo-5-nitrophenyl)[1-[[(2R)-1-methyl-2-piperidinyl]methyl]-1H-indol-3-yl]methanone], the fold induction at 35 µM came to 3.64.

Take `CCCCCn1cc(C(=O)c2ccc(Cl)c3ccccc23)c2ccccc21` [Example 223, (4-chloro-1-naphthalenyl)(1-pentyl-1H-indol-3-yl)-methanone]: the fold induction at 35 µM was determined as 1.76.

`O=C(Oc1cnc2ccccc2c1)c1cn(CCCCCF)c2ccccc12` [Example 136, quinolin-3-yl 1-(5-fluoropentyl)-1H-indole-3-carboxylate]: the fold induction at 35 µM came to 2.22.

As for `CCOC(=O)[C@@H](NC(=O)c1nn(CCCCCF)c2ccccc12)C(C)C` [Example 236, ethyl (1-(5-fluoropentyl)-1H-indazole-3-carbonyl)-L-valinate], the fold induction at 35 µM stood at 1.7.

On to `CCCCCn1cc(C(=O)c2ccc(CCC)c3ccccc23)c2ccccc21` [Example 164, (1-pentyl-1H-indol-3-yl)(4-propyl-1-naphthalenyl)-methanone], for which the fold induction at 35 µM was 2.03.

As to `O=C(c1cccc2ccccc12)c1cn(CCCC2CO2)c2ccccc12` (stereo not drawn) [Example 156, naphthalen-1-yl(1-(3-(oxiran-2-yl)propyl)-1H-indol-3-yl)methanone], the fold induction at 35 µM was 2.07.

Consider `CC(C)(C)C(NC(=O)c1nn(Cc2ccccc2)c2ccccc12)C(N)=O` (stereo not drawn) [Example 217, N-(1-amino-3,3-dimethyl-1-oxobutan-2-yl)-1-benzyl-1H-indazole-3-carboxamide], for which the fold induction at 35 µM came out at 1.79.

Consider `CCCCCn1cc(C(=O)c2cccc3cccc(Br)c23)c2ccccc21` [Example 87, (8-bromonaphthalen-1-yl)(1-pentyl-1H-indol-3-yl)methanone], for which the fold induction at 35 µM turned out to be 2.51.

As to `CCCCCn1cc(C(=O)c2cccc3cc(OC)ccc23)c2ccccc21` [Example 300, (6-methoxy-1-naphthalenyl)(1-pentyl-1H-indol-3-yl)-methanone], the fold induction at 35 µM amounted to 1.42.

As to `CCCCCn1c(C(=O)c2cccc3ccccc23)nc2ccccc21` [Example 123, naphthalen-1-yl(1-pentyl-1H-benzo[d]imidazol-2-yl)methanone], the fold induction at 35 µM was found to be 2.31.

For `CCCCCn1cc(C(=O)Oc2ccc3cnccc3c2)c2ccccc21` [Example 53, isoquinolin-6-yl 1-pentyl-1H-indole-3-carboxylate], the fold induction at 35 µM is 2.97.

The same experiment, now with this note: MHC-I expression, COLO 205 cells, compounds at 35 μM, 48 hours, flow cytometry (W6/32).
With `CCCCCCCC/C=C\CCCCCCCC(=O)N[C@H](C)CO` [Example 242], the “Induction Fold” value came to 1.67 Fold.

`CCCCCn1nc(C(=O)N[C@H](C(=O)OC)C(C)C)c2ccccc21` [Example 183, N-[(1-pentyl-1H-indazol-3-yl)carbonyl]-1-valine, methyl ester]: the “Induction Fold” value came out at 1.91 Fold.

With `O=C(NC12CC3CC(CC(C3)C1)C2)c1nn(CCCCCCl)c2ccccc12` [Example 333, N-((3s,5s,7s)-adamantan-1-yl)-1-(5-chloropentyl)-1H-indazole-3-carboxamide], the “Induction Fold” value was 1.21 Fold.
